Primed or numbered codes have the meaning given here. * marks the point of attachment. Dabcyl′ = CN(C)c1ccc(/N=N/c2ccc(C(=O)*)cc2)cc1; EDANS = O=S(=O)(O)c1cccc2c(NCCN*)cccc12
B1: Dabcyl-KQ10PPD-EDANS (peptide)
peptide: {Dabcyl′}-KQQQQQQQQQQPPD-{EDANS}
SMILES: CN(C)c1ccc(/N=N/c2ccc(C(=O)N[C@@H](CCCCN)C(=O)N[C@@H](CCC(N)=O)C(=O)N[C@@H](CCC(N)=O)C(=O)N[C@@H](CCC(N)=O)C(=O)N[C@@H](CCC(N)=O)C(=O)N[C@@H](CCC(N)=O)C(=O)N[C@@H](CCC(N)=O)C(=O)N[C@@H](CCC(N)=O)C(=O)N[C@@H](CCC(N)=O)C(=O)N[C@@H](CCC(N)=O)C(=O)N[C@@H](CCC(N)=O)C(=O)N3CCC[C@H]3C(=O)N3CCC[C@H]3C(=O)N[C@@H](CC(=O)O)C(=O)NCCNc3cccc4c(S(=O)(=O)O)cccc34)cc2)cc1
B2: Dabcyl-KQ10GD-EDANS (peptide)
peptide: {Dabcyl′}-KQQQQQQQQQQGD-{EDANS}
SMILES: CN(C)c1ccc(/N=N/c2ccc(C(=O)N[C@@H](CCCCN)C(=O)N[C@@H](CCC(N)=O)C(=O)N[C@@H](CCC(N)=O)C(=O)N[C@@H](CCC(N)=O)C(=O)N[C@@H](CCC(N)=O)C(=O)N[C@@H](CCC(N)=O)C(=O)N[C@@H](CCC(N)=O)C(=O)N[C@@H](CCC(N)=O)C(=O)N[C@@H](CCC(N)=O)C(=O)N[C@@H](CCC(N)=O)C(=O)N[C@@H](CCC(N)=O)C(=O)NCC(=O)N[C@@H](CC(=O)O)C(=O)NCCNc3cccc4c(S(=O)(=O)O)cccc34)cc2)cc1
B3: Dabcyl-KQ5GD-EDANS (peptide)
peptide: {Dabcyl′}-KQQQQQGD-{EDANS}
SMILES: CN(C)c1ccc(/N=N/c2ccc(C(=O)N[C@@H](CCCCN)C(=O)N[C@@H](CCC(N)=O)C(=O)N[C@@H](CCC(N)=O)C(=O)N[C@@H](CCC(N)=O)C(=O)N[C@@H](CCC(N)=O)C(=O)N[C@@H](CCC(N)=O)C(=O)NCC(=O)N[C@@H](CC(=O)O)C(=O)NCCNc3cccc4c(S(=O)(=O)O)cccc34)cc2)cc1

Key:
[1] = target: 26S proteasome (mouse (endogenous in brain)) (UniProt Q60692)
Chain of 26S proteasome (mouse (endogenous in brain)) (Q60692 whole entry, looked up): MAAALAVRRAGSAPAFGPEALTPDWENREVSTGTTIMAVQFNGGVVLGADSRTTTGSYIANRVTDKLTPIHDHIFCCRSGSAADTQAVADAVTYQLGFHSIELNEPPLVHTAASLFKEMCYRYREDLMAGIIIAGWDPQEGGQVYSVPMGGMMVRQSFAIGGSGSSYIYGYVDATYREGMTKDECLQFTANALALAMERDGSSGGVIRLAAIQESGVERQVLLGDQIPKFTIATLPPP

[2] = target: 20S proteasome (mouse (endogenous in brain)) (UniProt Q60692)
Chain of 20S proteasome (mouse (endogenous in brain)) (Q60692 whole entry, looked up): as above

[3] = test system: T1, 20S proteasome from murine brain; experiment: Specific peptidase activity of 20S proteasome with additives (Table S1); type: biochemical, mouse; conditions: for Specific peptidase activity using Suc-LLVY-AMC: 20S plus additive: 0.5 µM Bortezomib, 0.1 µM MG132, 0.02% SDS or 11S (1:2, mole:mole), 20S alone 2.37 ± 0.13
T1 construct: from tissue; host or cells: mouse brain
Text: Characterization of puriﬁed proteasomes
teasomes. […] To conﬁrm that
cathepsin B [48] (Table S1).
reaction mixture for both 20S and 26S.
Table S1. Peptidase activity of the samples of 20S and 26S proteasome from murine brain.
The molar ratio between the proteasome

[4] = test system: 26S proteasome from murine brain; experiment: Specific peptidase activity of 26S proteasome with additives (Table S1)
20S+11S = test system: T2, 20S+11S; experiment: Apparent kinetic parameters of FRET substrate hydrolysis by 20S+11S complex; type: biochemical, mouse; conditions: for Km / Vmax·10^−2: apparent, 20S+11S, molar ratio 1:4, substrate 5 to 100 µM, 37 °C, means ± SEM of three independent experiments run in duplicate; for Km: Michaelis-Menten, fluorescence 340/490 nm, 1 h; for Vmax (+11S)/Vmax: ratio of Vmax by 20S+11S to Vmax by 20S, proteasome:11S 1:4
T2 construct: from tissue; host or cells: mouse brain

20S proteasome [5] = test system: T3, 20S proteasome; experiment: Determination of proteolysis sites of oligoglutamine peptides by LC-MS; type: biochemical, mouse; conditions: for Products of proteasomal hydrolysis identified: LC-MS, identical for all proteasome complexes (20S, 20S+11S, 26S, 26S+11S); for Peak of the starting substrate after incubation with 20S proteasome: incubation for 48 h, UPLC C18, UV-VIS and MS detection
T3 construct: from tissue; host or cells: mouse brain
Procedure: Next, we determined proteolysis sites for our oligoglutamine-containing peptides using liquid chromatography-mass spectrometry (LC-MS). The chromatogram of the Dabcyl-KQ5GD-EDANS solution in DMSO (Figure 3a) has a peak at the retention time of 1.69 min. According to the mass spectrum (Figure 3b), this peak corresponds to the Dabcyl-KQ5GD-EDANS (M = 1458.69 g/mole; z = 2; m/z = 729) molecule. Another fragment with m/z = 252 corresponds to the Dabcyl- (C15H14N3O), and the one with m/z = 380 corresponds to the DabcylK- (C21H26N5O2) fragment. These peaks are likely to arise due to fragmentation in a mass spectrometer since, upon hydrolysis, the masses of these fragments would be 269 and 397, respectively. After the incubation with proteasome for 48 h, the peak at 1.69 min disappeared (Figure 3c), and two other peaks appeared with retention times equal to 1.45 and 1.72 min. These peaks were assigned to the N- and C-ends of the peptide on the basis of the difference in the absorption spectra of the Dabcyl and EDANS moieties. […] Other products were not detected either at short (15 min) or longer hydrolysis times (72 h).
Next, we identified cleavage sites for the substrate with a longer oligoglutamine fragment (Figure 4). The peak with a retention time of 1.06 min (Figure 4a) that corresponds to the Dabcyl-KQ10PPD-EDANS (M = 2236.38 g/mole; z = 2; m/z = 1118) molecule (Figure 4b) disappeared after the substrate was incubated with the 20S proteasome for 48 h. Instead, two other peaks appeared, at 1.14 and 1.37 min (Figure 4c). According to UV spectra for both peaks, the fragment at 1.14 min had Dabcyl chromophore, and the second fragment carried EDANS fluorophore. Finally, according to mass calculation, the first product was attributed to the Dabcyl-KQ2 fragment (Figure 4d) and the second one to the Q7PPD-EDANS moiety (Figure 4e).
Peptide samples were analyzed on an Acquity UPLC system (Waters, Milford, MA, USA) connected to a PDA detector and TQD mass spectrometer (Waters). […] The gradient program was as follows: from 5%B to 50%B per 3 min, from 50%B to 5%B per 0.1 min, at a flow rate of 0.5 mL/min and a temperature of 35 °C. Solvent A: 20 mM formic acid in acetonitrile/water (1:20)/Solvent B: 20 mM formic acid in acetonitrile. Instrument settings and measuring parameters TQD were as follows: capillary voltage 3.5 kV; cone voltage 25 V; source temperature 120 °C; desolvation temperature 450 °C; cone gas flow 50 L/h; desolvation gas flow 800 L/h; MS1 scanning mass from 50 to 1500 Da; positive polarity. The PDA detector range was 220–500 nm. The resulting raw data were analyzed using the MassLynx software (version 4.1 SCN919).

20S proteasome [6] = test system: T3, 20S proteasome; experiment: Apparent kinetic parameters of FRET substrate hydrolysis by 20S proteasome; type: biochemical, mouse; conditions: substrate 5 to 100 µM, 37 °C, means ± SEM of three independent experiments run in duplicate; for Km: Michaelis-Menten, fluorescence 340/490 nm, 1 h
26S proteasome = test system: T4, 26S proteasome; experiment: Apparent kinetic parameters of FRET substrate hydrolysis by 26S proteasome; type: biochemical, mouse; conditions: substrate 5 to 100 µM, 37 °C, means ± SEM of three independent experiments run in duplicate; for Km: Michaelis-Menten, fluorescence 340/490 nm, 1 h
T4 construct: from tissue; host or cells: mouse brain

26S+11S = test system: T5, 26S+11S; experiment: Apparent kinetic parameters of FRET substrate hydrolysis by 26S+11S complex; type: biochemical, mouse; conditions: for Km / Vmax·10^−2: apparent, 26S+11S, molar ratio 1:4, substrate 5 to 100 µM, 37 °C, means ± SEM of three independent experiments run in duplicate; for Km: Michaelis-Menten, fluorescence 340/490 nm, 1 h; for Vmax (+11S)/Vmax: ratio of Vmax by 26S+11S to Vmax by 26S, proteasome:11S 1:4
T5 construct: from tissue; host or cells: mouse brain

[7] = means ± SEM of three independent experiments run in duplicate

Molecule | Km (20S+11S) [µM] | Vmax·10^−2 (20S+11S) | Vmax (+11S)/Vmax (20S+11S) | Km (20S proteasome [6]) [µM] | Vmax·10^−2 (20S proteasome [6]) | Km (26S proteasome) [µM] | Vmax·10^−2 (26S proteasome) | Km (26S+11S) [µM] | Vmax·10^−2 (26S+11S) | Vmax (+11S)/Vmax (26S+11S) | apparent Km of hydrolysis by 26S+11S (proteasome:11S 1:4) [1] [µM] | apparent Km of hydrolysis by the 26S proteasome [1] [µM] | apparent Km of hydrolysis by 20S+11S (proteasome:11S 1:4) [2] [µM] | apparent Km of hydrolysis by the 20S proteasome [2] [µM] | other results
11S regulator (PA28αβ) (from UniProt P97371 1-249; P97372 1-239) (complex) | – | – | – | – | – | – | – | – | – | – | – | – | – | – | Vmax (+11S)/Vmax of hydrolysis of Dabcyl-KQ5GD-EDANS by the 26S proteasome, proteasome:11S 1:4 [1]: 1; Vmax (+11S)/Vmax of hydrolysis of Dabcyl-KQ10GD-EDANS by the 26S proteasome, proteasome:11S 1:4 [1]: 1.4; Vmax (+11S)/Vmax of hydrolysis of Dabcyl-KQ10PPD-EDANS by the 26S proteasome, proteasome:11S 1:4 [1]: 2; Vmax (+11S)/Vmax of hydrolysis of Dabcyl-KQ5GD-EDANS by the 20S proteasome, proteasome:11S 1:4 [2]: 2.7; Vmax (+11S)/Vmax of hydrolysis of Dabcyl-KQ10GD-EDANS by the 20S proteasome, proteasome:11S 1:4 [2]: 1.5; Vmax (+11S)/Vmax of hydrolysis of Dabcyl-KQ10PPD-EDANS by the 20S proteasome, proteasome:11S 1:4 [2]: 2.3
11S: 11S proteasomal regulator (PA28) consisting of α/β subunits, isolated from mouse brain | – | – | – | – | – | – | – | – | – | – | – | – | – | – | Specific peptidase activity using Suc-LLVY-AMC [3, 7]: 8.8 ± 0.4 nM/min/µg; Specific peptidase activity using Z-LLE-AMC ([3]; 20S+11S (1:2, mole:mole), 20S alone 1.14 ± 0.02, means ± SEM of three independent experiments run in duplicate): 5.2 ± 0.1 nM/min/µg; Specific peptidase activity using Ac-RLR-AMC ([3]; 20S+11S (1:2, mole:mole), 20S alone 2.78 ± 0.07, means ± SEM of three independent experiments run in duplicate): 8.4 ± 0.2 nM/min/µg; Specific peptidase activity using Ac-RLR-AMC ([4]; 26S+11S (1:2, mole:mole), 26S alone 1.92 ± 0.06, means ± SEM of three independent experiments run in duplicate): 2.5 ± 0.2 nM/min/µg; Specific peptidase activity using Z-LLE-AMC ([4]; 26S+11S (1:2, mole:mole), 26S alone 5.4 ± 0.1, means ± SEM of three independent experiments run in duplicate): 6.7 ± 0.5 nM/min/µg
CCCCCCCCCCCCOS(=O)(=O)[O-].[Na+] [SDS] | – | – | – | – | – | – | – | – | – | – | – | – | – | – | Specific peptidase activity using Suc-LLVY-AMC [3, 7]: 34 ± 6 nM/min/µg; Increase of the activity of the 20S proteasome ([3]; in the presence of 0.02% SDS): 13–15 times; Effect on the 26S proteasome activity ([4]; in the presence of 0.02% SDS): completely inhibited
Dabcyl-KQ5GD-EDANS [internally quenched fluorogenic FRET substrate with five glutamine residues, EDANS-Dabcyl pair] | 60 ± 8 | 6.1 ± 1.4 10^−2 μM·min^−1 | 2.7 | 52 ± 8 | 2.3 ± 0.3 10^−2 μM·min^−1 | 54 ± 10 | 2.0 ± 0.3 10^−2 μM·min^−1 | 52 ± 10 | 2.1 ± 0.3 10^−2 μM·min^−1 | 1.0 | – | – | – | – | Products of proteasomal hydrolysis identified (20S proteasome [5]): Dabcyl-KQ2 and QGD-EDANS; Peak of the starting substrate after incubation with 20S proteasome (20S proteasome [5]): disappeared
Dabcyl-KQ10GD-EDANS [internally quenched fluorogenic FRET substrate with ten glutamine residues, EDANS-Dabcyl pair] | 64 ± 14 | 0.92 ± 0.15 10^−2 μM·min^−1 | 1.5 | 40 ± 3 | 0.61 ± 0.02 10^−2 μM·min^−1 | 18 ± 2 | 0.09 ± 0.01 10^−2 μM·min^−1 | 38 ± 9 | 0.12 ± 0.03 10^−2 μM·min^−1 | 1.4 | – | – | – | – | –
Dabcyl-KQ10PPD-EDANS | 5.3 ± 1.3 | 1.66 ± 0.07 10^−2 μM·min^−1 | 2.3 | 8.2 ± 1.5 | 0.73 ± 0.03 10^−2 μM·min^−1 | 24.5 ± 10 | 2.3 ± 0.2 10^−2 μM·min^−1 | 20 ± 4.6 | 4.73 ± 0.35 10^−2 μM·min^−1 | 2.0 | – | – | – | – | Products of proteasomal hydrolysis identified (20S proteasome [5]): Dabcyl-KQ2 and Q7PPD-EDANS; Peak of the starting substrate after incubation with 20S proteasome (20S proteasome [5]): disappeared
B1 | – | – | – | – | – | – | – | – | – | – | 20 | 24.5 | 5.3 | 8.2 | –
B2 | – | – | – | – | – | – | – | – | – | – | 38 | 18 | 64 | 40 | –
B3 | – | – | – | – | – | – | – | – | – | – | 52 | 54 | 60 | 52 | –

Reference: PMC10487437 (International Journal of Molecular Sciences, 2023)
